From paper PMC10955127 (Frontiers in Pharmacology, 2024)
Entries after “also recorded” stand apart in the source; their conditions may differ. Read-outs that look alike come from different tables or passages of the source.

How the values were obtained:
androgen receptor [1] = system: androgen receptor; set-up: method as in ToxCast database; conditions: ref ToxCast database; cited from earlier work
estrogen receptor [2] = system: estrogen receptor; set-up: method as in ToxCast database; conditions: ref ToxCast database; cited from earlier work
rats = conditions: teratogenic and embryotoxic effects; ref SCCS, 2023b; cited from earlier work
COX2(h) = target: T1, COX2(h) (Homo sapiens, UniProt P35354); test: Pharmacology profiling: COX2; type: biochemical
T1 sequence (P35354 18-604): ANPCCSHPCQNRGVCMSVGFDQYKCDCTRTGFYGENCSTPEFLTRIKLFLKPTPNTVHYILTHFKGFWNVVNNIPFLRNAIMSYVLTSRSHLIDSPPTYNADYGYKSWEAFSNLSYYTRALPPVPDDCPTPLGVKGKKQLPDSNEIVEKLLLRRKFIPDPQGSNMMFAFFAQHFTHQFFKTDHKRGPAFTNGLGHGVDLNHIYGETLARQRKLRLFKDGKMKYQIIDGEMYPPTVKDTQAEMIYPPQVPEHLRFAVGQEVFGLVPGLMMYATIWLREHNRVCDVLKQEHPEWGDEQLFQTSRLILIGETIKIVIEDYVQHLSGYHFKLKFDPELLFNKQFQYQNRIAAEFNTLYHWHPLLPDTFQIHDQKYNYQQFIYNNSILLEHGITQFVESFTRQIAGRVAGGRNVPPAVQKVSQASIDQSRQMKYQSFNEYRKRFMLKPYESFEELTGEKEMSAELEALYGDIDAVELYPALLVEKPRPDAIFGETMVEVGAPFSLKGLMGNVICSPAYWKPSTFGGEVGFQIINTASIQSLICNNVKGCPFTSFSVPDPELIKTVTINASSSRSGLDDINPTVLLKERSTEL

androgen receptor (AR) = system: androgen receptor (AR); set-up: method as in ToxCast; conditions: ref ToxCast, cited from earlier work
estrogen receptor [3] = system: estrogen receptor; set-up: method as in ToxCast database; conditions: ref ToxCast database; cited from earlier work; remark: listed apart in the source
Human MDR1 = Human MDR1 (Homo sapiens, UniProt P08183); conditions: not told
Human MDR1, sequence (P08183 whole entry): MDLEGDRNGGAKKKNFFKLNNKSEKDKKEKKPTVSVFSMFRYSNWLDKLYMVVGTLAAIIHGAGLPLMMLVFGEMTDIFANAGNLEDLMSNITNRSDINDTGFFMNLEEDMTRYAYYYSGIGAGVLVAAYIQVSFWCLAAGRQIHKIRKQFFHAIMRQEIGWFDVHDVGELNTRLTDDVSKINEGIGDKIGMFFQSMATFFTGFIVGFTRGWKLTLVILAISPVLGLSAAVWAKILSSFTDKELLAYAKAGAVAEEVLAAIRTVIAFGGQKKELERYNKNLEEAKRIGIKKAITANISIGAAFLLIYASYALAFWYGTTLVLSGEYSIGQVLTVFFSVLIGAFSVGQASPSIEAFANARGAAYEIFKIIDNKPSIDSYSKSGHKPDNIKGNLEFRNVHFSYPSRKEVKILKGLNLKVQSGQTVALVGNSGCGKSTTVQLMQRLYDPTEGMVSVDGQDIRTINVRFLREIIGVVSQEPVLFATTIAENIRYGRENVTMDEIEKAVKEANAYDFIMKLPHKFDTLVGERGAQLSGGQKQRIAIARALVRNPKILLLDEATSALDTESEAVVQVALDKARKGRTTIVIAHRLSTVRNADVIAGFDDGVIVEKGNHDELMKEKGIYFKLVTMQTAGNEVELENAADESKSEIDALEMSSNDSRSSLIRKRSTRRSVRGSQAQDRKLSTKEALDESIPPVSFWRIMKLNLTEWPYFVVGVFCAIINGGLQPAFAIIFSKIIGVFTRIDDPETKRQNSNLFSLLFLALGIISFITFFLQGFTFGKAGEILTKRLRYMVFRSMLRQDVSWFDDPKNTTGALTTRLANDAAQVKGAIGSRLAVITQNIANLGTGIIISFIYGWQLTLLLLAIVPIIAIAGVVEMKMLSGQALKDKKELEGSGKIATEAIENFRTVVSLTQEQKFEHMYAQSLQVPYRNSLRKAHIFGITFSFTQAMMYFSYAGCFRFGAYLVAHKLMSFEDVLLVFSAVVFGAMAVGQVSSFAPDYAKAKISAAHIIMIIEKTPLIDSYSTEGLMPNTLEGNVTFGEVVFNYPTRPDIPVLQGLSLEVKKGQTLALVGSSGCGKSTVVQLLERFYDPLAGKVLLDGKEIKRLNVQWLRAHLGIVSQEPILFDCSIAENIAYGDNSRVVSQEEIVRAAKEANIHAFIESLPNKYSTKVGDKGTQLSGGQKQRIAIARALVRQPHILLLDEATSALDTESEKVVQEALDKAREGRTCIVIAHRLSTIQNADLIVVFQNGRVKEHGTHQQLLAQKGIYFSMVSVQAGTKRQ

[4] = Protocol: Figure 8 provides an overview of the tiered workflow and the related in silico and in vitro NAMs used to calculate the MoIE. […] Since this assessment is conducted using plasma concentrations rather than external doses, the comparison is an MoIE.
In this assessment, the total plasma concentrations were used, rather than unbound concentrations, because they are compared with nominal doses used in the in vitro assays (biokinetics in the toxicogenomics incubations were not measured).

in vitro = conditions: human, plasma
Human MRP4 = Human MRP4 (Homo sapiens, UniProt O15439); conditions: not told
Human MRP4, sequence (O15439 whole entry): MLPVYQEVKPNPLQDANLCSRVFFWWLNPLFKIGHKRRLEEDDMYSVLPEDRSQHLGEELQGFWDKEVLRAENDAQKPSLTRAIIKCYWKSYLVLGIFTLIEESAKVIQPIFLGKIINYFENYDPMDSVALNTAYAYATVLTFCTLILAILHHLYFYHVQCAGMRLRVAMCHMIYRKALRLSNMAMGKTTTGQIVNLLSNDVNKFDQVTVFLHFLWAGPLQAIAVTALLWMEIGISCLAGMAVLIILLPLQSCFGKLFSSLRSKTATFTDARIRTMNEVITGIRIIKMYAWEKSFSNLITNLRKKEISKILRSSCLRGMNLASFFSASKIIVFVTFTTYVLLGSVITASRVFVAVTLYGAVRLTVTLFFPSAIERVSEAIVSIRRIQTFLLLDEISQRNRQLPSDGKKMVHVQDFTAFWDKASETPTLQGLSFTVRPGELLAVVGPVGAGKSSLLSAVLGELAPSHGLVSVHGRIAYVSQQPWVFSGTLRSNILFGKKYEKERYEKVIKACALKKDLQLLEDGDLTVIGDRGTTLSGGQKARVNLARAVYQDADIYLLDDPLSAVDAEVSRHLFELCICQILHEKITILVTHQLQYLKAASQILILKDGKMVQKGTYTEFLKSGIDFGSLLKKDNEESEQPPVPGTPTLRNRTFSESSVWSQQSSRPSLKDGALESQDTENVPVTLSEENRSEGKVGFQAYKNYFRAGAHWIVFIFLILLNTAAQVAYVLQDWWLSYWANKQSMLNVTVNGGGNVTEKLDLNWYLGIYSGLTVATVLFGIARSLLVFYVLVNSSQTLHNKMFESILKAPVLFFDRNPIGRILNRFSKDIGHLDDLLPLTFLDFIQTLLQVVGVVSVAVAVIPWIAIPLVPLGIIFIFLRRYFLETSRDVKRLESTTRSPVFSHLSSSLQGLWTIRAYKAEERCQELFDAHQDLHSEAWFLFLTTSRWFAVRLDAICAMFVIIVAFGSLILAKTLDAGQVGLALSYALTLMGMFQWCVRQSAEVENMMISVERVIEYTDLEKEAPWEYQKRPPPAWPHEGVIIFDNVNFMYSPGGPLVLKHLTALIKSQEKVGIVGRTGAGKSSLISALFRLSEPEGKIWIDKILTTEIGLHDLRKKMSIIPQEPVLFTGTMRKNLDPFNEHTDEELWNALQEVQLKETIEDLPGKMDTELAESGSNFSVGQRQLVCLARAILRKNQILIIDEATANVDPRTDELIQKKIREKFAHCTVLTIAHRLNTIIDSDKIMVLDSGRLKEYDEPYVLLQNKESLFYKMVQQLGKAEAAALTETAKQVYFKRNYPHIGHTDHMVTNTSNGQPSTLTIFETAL

Human MRP2 = Human MRP2 (Homo sapiens, UniProt Q92887); conditions: not told
Human MRP2, sequence (Q92887 whole entry): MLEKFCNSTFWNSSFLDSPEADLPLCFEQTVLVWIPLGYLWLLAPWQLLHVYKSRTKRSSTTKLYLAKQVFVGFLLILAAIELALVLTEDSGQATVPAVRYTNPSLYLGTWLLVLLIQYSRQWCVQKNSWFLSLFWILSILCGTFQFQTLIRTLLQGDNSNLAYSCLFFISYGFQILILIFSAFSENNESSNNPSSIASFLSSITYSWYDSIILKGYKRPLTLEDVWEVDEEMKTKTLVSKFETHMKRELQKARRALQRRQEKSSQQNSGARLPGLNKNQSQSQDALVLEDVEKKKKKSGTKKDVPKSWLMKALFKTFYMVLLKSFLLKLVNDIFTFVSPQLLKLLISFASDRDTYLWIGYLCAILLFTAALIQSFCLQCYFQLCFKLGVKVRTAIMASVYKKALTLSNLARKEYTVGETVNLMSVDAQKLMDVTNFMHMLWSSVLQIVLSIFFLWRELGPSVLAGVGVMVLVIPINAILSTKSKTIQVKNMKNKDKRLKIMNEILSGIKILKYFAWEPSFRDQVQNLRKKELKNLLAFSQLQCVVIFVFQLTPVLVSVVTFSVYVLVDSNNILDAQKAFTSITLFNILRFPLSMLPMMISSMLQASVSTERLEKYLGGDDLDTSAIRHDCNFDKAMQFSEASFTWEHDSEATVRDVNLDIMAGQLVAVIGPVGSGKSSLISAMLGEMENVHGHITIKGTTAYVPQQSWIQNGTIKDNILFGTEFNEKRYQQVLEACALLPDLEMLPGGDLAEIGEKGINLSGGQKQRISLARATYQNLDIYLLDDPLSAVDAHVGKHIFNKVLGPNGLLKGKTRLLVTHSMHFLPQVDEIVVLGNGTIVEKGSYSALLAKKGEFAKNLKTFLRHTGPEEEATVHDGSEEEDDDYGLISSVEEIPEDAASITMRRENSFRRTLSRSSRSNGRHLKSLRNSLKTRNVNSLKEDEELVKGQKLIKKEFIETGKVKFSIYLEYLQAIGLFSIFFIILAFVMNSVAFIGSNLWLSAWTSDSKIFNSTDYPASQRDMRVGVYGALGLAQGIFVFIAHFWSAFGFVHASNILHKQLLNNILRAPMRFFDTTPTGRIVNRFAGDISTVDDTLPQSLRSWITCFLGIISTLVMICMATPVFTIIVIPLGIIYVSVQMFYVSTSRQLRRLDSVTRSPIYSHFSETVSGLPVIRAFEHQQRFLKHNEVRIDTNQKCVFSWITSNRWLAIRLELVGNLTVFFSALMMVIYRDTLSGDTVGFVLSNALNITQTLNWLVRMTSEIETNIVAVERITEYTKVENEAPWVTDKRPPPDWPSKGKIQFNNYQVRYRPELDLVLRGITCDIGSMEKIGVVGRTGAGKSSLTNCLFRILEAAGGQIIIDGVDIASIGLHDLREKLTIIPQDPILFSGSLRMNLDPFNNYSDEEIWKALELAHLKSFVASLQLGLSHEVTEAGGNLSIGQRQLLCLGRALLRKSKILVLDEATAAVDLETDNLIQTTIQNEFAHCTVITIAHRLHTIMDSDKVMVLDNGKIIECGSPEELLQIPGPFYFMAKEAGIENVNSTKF

androgen receptor [5] = system: androgen receptor; set-up: method as in ToxCast database; conditions: ref ToxCast database; cited from earlier work; remark: listed apart in the source
[6] = Deterministic PBPK model of plasma concentrations; set-up: species or system human; conditions: deterministic PBPK and Fup
HepG2 cells [7] = test: Whole-genome transcriptomics dose response (toxicogenomics); conditions: analysis method 1; HepG2, 24 h
hPTCs = conditions: human, 72 h
HepG2 cells [8] = conditions: human, 24 h
Aromatase = system: Aromatase; set-up: method as in ToxCast database; conditions: ref ToxCast database; cited from earlier work
[9] = system: panel of 83 pharmacological targets
From the text: The set of targets was extended to broaden the biological coverage.
Results showing an inhibition or stimulation higher than 50% are considered to represent significant effects (i.e. a “hit”).

thyroid pathway = system: thyroid pathway; set-up: method as in ToxCast database; conditions: ref ToxCast database; cited from earlier work
estrogen receptor (ER) = conditions: ref ToxCast, cited from earlier work
Human OAT2v1 = Human OAT2v1 (Homo sapiens, UniProt Q9Y694)
[10] = ref PubChem or the ECHA database; cited from earlier work
TSHR = system: TSHR; set-up: method as in ToxCast database; conditions: ref ToxCast database; cited from earlier work
[11] = In vitro skin penetration and metabolism, fresh viable pig skin on static Franz cells; conditions: 24 h; epidermis + dermis + receptor fluid
From the text: Fresh viable pig skin (without hot steam treatment, by-product from meat industry) was obtained from a local, commercial butcher (Hammoor, Germany). The back skin was from female pigs (bred from “Dänische Landrasse” (female) and Pietrain (male) pigs, ~130 days old, 100 kg body weight). Pig skin samples were gently dry-shaved and washed with water before use. For the experiment, 2 replicate discs from each of 3 donors were used.
Skin of full-thickness was mounted on static Franz cells with a 4.9 cm² application area. The receptor compartment of the diffusion cell was filled with approx. 5 ml RF (1% BSA, 0.9% NaCl, 0.05% gentamycin sulfate in water), above a magnetic stirrer set to low rotation. […] The experiment was conducted using non-occluded conditions.
The dermal absorption was calculated as the total amount present within epidermis (without the amount in the total SC strips), dermis and RF.

[12] = system: Thyroid (TR and TPO only); set-up: method as in ToxCast; conditions: ref ToxCast, cited from earlier work
COX1(h) = COX1(h) (Homo sapiens, UniProt P23219); test: Pharmacology profiling: COX1; type: biochemical
COX1(h), sequence (P23219 24-599): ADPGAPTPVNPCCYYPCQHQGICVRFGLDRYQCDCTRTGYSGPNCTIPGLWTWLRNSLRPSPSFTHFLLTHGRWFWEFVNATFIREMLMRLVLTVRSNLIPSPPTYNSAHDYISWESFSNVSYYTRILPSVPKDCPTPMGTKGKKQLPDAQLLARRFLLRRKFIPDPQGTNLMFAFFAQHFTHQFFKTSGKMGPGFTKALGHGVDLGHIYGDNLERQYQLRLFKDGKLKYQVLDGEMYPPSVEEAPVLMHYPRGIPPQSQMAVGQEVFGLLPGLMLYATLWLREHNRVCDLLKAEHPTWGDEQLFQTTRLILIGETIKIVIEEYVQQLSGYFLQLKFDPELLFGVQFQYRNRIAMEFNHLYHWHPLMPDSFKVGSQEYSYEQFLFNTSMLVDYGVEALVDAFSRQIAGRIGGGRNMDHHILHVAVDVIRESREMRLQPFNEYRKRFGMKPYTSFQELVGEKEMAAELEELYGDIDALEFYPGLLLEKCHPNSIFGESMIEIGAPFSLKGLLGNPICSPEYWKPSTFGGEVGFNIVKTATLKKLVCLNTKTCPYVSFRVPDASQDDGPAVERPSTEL

androgen receptor [13] = system: androgen receptor; set-up: method as in ToxCast database; conditions: ref ToxCast database; cited from earlier work; remark: listed apart in the source

O=C(O)c1ccccc1O [SA, salicylic acid]
Androgen pathway mRNA induction: Call (androgen receptor [1]): Negative
Estrogen pathway mRNA induction: Call (estrogen receptor [2]): Negative
NOAEL (rats): 75 mg/kg bw
IC50 (COX2(h)): > 10 mM
Inhibition of COX2, screening (COX2(h); 10 µM): did not inhibit
inhibition at 10000 µM (COX2(h); 10 mM): 29%
Androgen: Experimental Data (call) (androgen receptor (AR); Tier 0): Negative
Androgen: assays active / assays (androgen receptor (AR)): 1/15 active (noise)
Estrogen pathway Reporter protein Antagonist: Call (estrogen receptor [3]): Negative
Substrate of MDR1 (efflux) (Human MDR1): not a substrate
MoIE ([4]; PoD method 1 (213 µM) / CI95 Cmax 0.630 µM): 338
MoIE ([4]; PoD method 1 (213 µM) / mean Cmax 0.273 µM): 780
MoIE ([4]; PoD method 2 ([…]) / CI95 Cmax 0.630 µM): 16
MoIE ([4]; PoD method 2 ([…]) / mean Cmax 0.273 µM): 38
fraction unbound (in vitro): 0.029 to 0.18
Substrate of MRP4 (efflux) (Human MRP4): not a substrate
Substrate of MRP2 (efflux) (Human MRP2): not a substrate
Androgen pathway receptor binding: Call (androgen receptor [5]): Negative
Exposure of unbound SA compared to unbound BSal [6]: ≥ 5 fold
PoD (BMDL, lowest pathway) (HepG2 cells [7]): 213 µM
PoD (hPTCs): >300 µM
PoD (BMDL, lowest pathway) (HepG2 cells [8]): 213 μM (method 1) µM
Steroidogenesis Aromatase: Call (Aromatase): Negative
PoD [9]: ≥10,000 µM
Effect on panel targets ([9]; up to millimolar concentrations): none of the targets tested were significantly impacted
Thyroid pathway mRNA induction: Call (thyroid pathway): Negative
Estrogen: Experimental Data (call) (estrogen receptor (ER); Tier 0): Negative
Estrogen: assays active / assays (estrogen receptor (ER)): 0/18 active
Substrate of OAT2v1 (uptake) (Human OAT2v1): not a substrate
Vapor pressure [10]: 0.0208 Pa
Thyroid pathway Regulation of transcription factor activity (TSHR): Call (TSHR): Negative
Dermal absorption of individual analytes [11]: 6.9 ± 0.4 percentage of the applied dose
Thyroid (TR and TPO only): Experimental Data (call) ([12]; Tier 0): Negative
Thyroid (TR and TPO only): assays active / assays [12]: 0/11 active
Inhibition of COX1, screening (COX1(h); 10 µM): did not inhibit
Inhibition of COX1, follow-up (COX1(h); up to 10 mM): did not inhibit; also recorded: no effect
Androgen pathway Reporter protein Antagonist: Call (androgen receptor [13]): Negative
